Results as given in publication PMC8772704, “Quantification of Fosfomycin in Combination with Nine Antibiotics in Human Plasma and Cation-Adjusted Mueller-Hinton II Broth via LCMS” (Antibiotics, 2022).

Columns and labels:
[1] = 32-day stability of stock solutions stored at −80 °C; format: physicochemical; details: stock solution stored at -80 °C; peak area Day 32 vs Day 1
Description: Stability of stock solutions
All stock solutions of antibiotics and their corresponding stable-isotope variants were measured prior to cold storage at -80 °C and tested at 32 days later.
Stability was determined by comparing the peak area of each drug between its Day 1 and Day 32 measurement. Acceptable criteria for stability was met if the […]

[2] = Autosampler stability at 4 °C of extracted antibiotic-spiked plasma/CAMHB samples; details: for Mean accuracy (%), Table S8 / Mean accuracy (%), Table S10: CAMHB extracted samples; for Mean accuracy (%), Table S8 / Mean accuracy (%), Table S7: 7 h autosampler 4 °C; for Mean accuracy (%), Table S10: 15 h autosampler 4 °C; for Mean accuracy (%), Table S7: plasma extracted samples
Description: (§1) The stability of fosfomycin in combination with other antibiotics in plasma/CAMHB was evaluated under various operational conditions. Spiked plasma/CAMHB samples were evaluated at 7 h and 15 h in the autosampler at 4 °C. Long-term stability was evaluated up to 4 weeks of antibiotic-spiked plasma/CAMHB samples at LQC, MQC, and HQC concentrations stored at −30 °C and −80 °C.

[3] = Long-term storage stability of antibiotics in combination with fosfomycin spiked in plasma/CAMHB (−30 °C, −80 °C); format: physicochemical; details: for Stability verdict (within ±15% of nominal): CAMHB samples stored at −30 °C; for Mean accuracy (%), Table S15 / Mean accuracy (%), Table S17 / Mean accuracy (%), Table S16 / Mean accuracy (%), Table S18: CAMHB; for Mean accuracy (%), Table S15 / Mean accuracy (%), Table S17 / Mean accuracy (%), Table S16 / Mean accuracy (%), Table S18 / Mean accuracy (%), Table S11 / Mean accuracy (%), Table S13 / Mean accuracy (%), Table S12 / Mean accuracy (%), Table S14: combination with fosfomycin; for Mean accuracy (%), Table S15 / Mean accuracy (%), Table S11: 2 weeks at -30 °C; for Mean accuracy (%), Table S17 / Mean accuracy (%), Table S13: 2 weeks at -80 °C; for Mean accuracy (%), Table S16 / Mean accuracy (%), Table S12: 4 weeks at -30 °C; for Mean accuracy (%), Table S18 / Mean accuracy (%), Table S14: 4 weeks at -80 °C; for Mean accuracy (%), Table S11 / Mean accuracy (%), Table S13 / Mean accuracy (%), Table S12 / Mean accuracy (%), Table S14: plasma
Description: as §1

## C[C@@H](O)[C@H]1C(=O)N2C(C(=O)O)=C(S[C@@H]3CN[C@H](CNS(N)(=O)=O)C3)[C@H](C)[C@H]12 [Doripenem, doripenem]
[1]
  32 Day Stability (%): 99.13%
[2]; HQC (nominal as E15)
  Mean accuracy (%), Table S8: 103.1%
  Mean accuracy (%), Table S10: 103.0%
[2]; LQC (nominal as E13)
  Mean accuracy (%), Table S8: 104.8%
  Mean accuracy (%), Table S10: 108.0%
[2]; MQC (nominal as E14)
  Mean accuracy (%), Table S8: 105.2%
  Mean accuracy (%), Table S10: 111.3%
[2]; HQC: nominal mg/L CAZ 150, FEP 200, PIP 250, ATM 300, MEM 200, DOR 175, LVX 30, CEFT 250, TZB 87.5, TGC 20, AVI 30, FOF 1000
  Mean accuracy (%), Table S7: 98.9%
[2]; LQC: nominal 1 mg/L (levofloxacin, avibactam 0.5; fosfomycin 10)
  Mean accuracy (%), Table S7: 104.0%
[2]; MQC: nominal mg/L CAZ 75, FEP 100, PIP 150, ATM 150, MEM 100, DOR 87.5, LVX 15, CEFT 125, TZB 43.75, TGC 10, AVI 15, FOF 500
  Mean accuracy (%), Table S7: 100.7%
[3]; 2 weeks
  Stability verdict (within ±15% of nominal): instability
[3]; 4 weeks
  Stability verdict (within ±15% of nominal): instability
[3]; HQC (nominal as E15)
  Mean accuracy (%), Table S15: 82.4%
  Mean accuracy (%), Table S17: 100.1%
  Mean accuracy (%), Table S16: 64.1%
  Mean accuracy (%), Table S18: 105.8%
  Mean accuracy (%), Table S11: 98.0%
  Mean accuracy (%), Table S13: 98.3%
  Mean accuracy (%), Table S12: 102.4%
  Mean accuracy (%), Table S14: 106.3%
[3]; LQC (nominal as E13)
  Mean accuracy (%), Table S15: 73.1%
  Mean accuracy (%), Table S17: 104.0%
  Mean accuracy (%), Table S16: 64.6%
  Mean accuracy (%), Table S18: 99.1%
  Mean accuracy (%), Table S11: 91.0%
  Mean accuracy (%), Table S13: 100.6%
  Mean accuracy (%), Table S12: 100.0%
  Mean accuracy (%), Table S14: 99.2%
[3]; MQC (nominal as E14)
  Mean accuracy (%), Table S15: 77.1%
  Mean accuracy (%), Table S17: 103.9%
  Mean accuracy (%), Table S16: 60.6%
  Mean accuracy (%), Table S18: 104.7%
  Mean accuracy (%), Table S11: 97.0%
  Mean accuracy (%), Table S13: 96.9%
  Mean accuracy (%), Table S12: 103.1%
  Mean accuracy (%), Table S14: 106.9%
